The results in this text go back to patent US5814627A, “3, 5-disubstituted and 3, 4, 5-trisubstituted 2-isoxazolines and isoxazoles, process for their preparation and their use as pharmaceuticals” (Hoechst Aktienegesellschaft, priority 1994, dated 1998).

Assay [1] has as its system adjuvant/arthritis model. The experiment in a line: Test 6: antiarthritic effect in the adjuvant/arthritis model. The assay is classed as in vivo, rat (Wistar-Lewis). The note with it: Rattus norvegicus, po, 408 h, read-out: Test 6 Paw volume (% inhibition); for inhibition in vivo at 20 mg/kg: 20 mg/kg orally; for inhibition in vivo at 25 mg/kg: 25 mg/kg orally.
Assay [2] deals with tumor cell line 20-10-5S (hybridoma cell line). Kind of assay: Test 8: Inhibition of tumor cell proliferation. The assay is classed as cell-based. The note with it: 48 h + 16 h tritiated thymidine incorporation; 20-10-5S cells.
Experimental: The tumor cell line 20-10-5S (hybridoma cell line, supplied by ATCC (American Type Culture Collection)), which produces an antibody against mouse T cells) was used for determining the antiproliferative property of test substances. The cells were cultured, at 37° C. and 5% C2, under serum-free conditions in CG medium (cell-growth medium=Iscove-ATL (+albumin+transferrin+lipids); from Vitromex, Vilshofen). Only cells which were in the logarithmic phase of growth were used for the test mixture. The test substances were pipetted in various concentrations (from 1 to 50 μM), together with 4×10^3 20-10-5S cells, into round-bottomedmicrotiter plates (total volume with medium, 200 μl). After an incubation time of 48 h (37° C. and 5% CO2), 25 μl of tritiated thymidine (=0.25 μCi/test mixture, specific activity, 23 Ci/mM) were added to the plates. During the subsequent 16 h, the radioactively labeled thymidine was incorporated into the DNA of the growing cells. The samples were filtered off with suction on glass fiber filters and the incorporated radioactivity was measured using a β counter (Beta Plate System 1205 from Wallac).
The test system of assay [3] is cyclooxygenase-dependent thrombocyte aggregation. The experiment in a line: Test 5: Cyclooxygenase-dependent thrombocyte aggregation. It is filed as cell-based, human. To be noted: arachidonic acid as inducer. The method, then: TEST 5. Cyclooxygenase-dependent thrombocyte aggregation
Platelet-rich plasma (PRP): to inhibit coagulation, human blood was treated with 1/10 of its volume of 3.8% sodium citrate solution. Centrifugation then takes place at 105×g for 20 minutes and the supernatant (PRP) is removed. 200 μl of PRP were preincubated, at 37° C. for 10 minutes, together with 30 μl of test substance in a PAP4 aggregometer (BioData). The test substance was dissolved in organic solvent and diluted 1:30 with buffer (50 mM TisHCl, pH 8.0; 90 mM NaCl). Aggregation is triggered with 20 μl of inducer. During the aggregation, stirring takes place at 800 rpm. Arachidonic acid, 5 mg/ml, was used as the inducer.
The values in the table show the concentration of the test substance which was employed in μM and, besides this, the residual activity measured in percent based on the control, which was set to be 100%. The interleukin is additionally indicated in test 4.

For assay [4], the system named is polymorphonuclear leucocytes (PMNL). Kind of assay: Test 1: Release of proteolytic activity from human PMNL. The assay is classed as cell-based. To be noted: Homo sapiens, PMNL, read-out: Test 1 residual activity (release of proteolytic activity), percent of control. On the procedure:
Isolation of polymorphonuclear leucocytes (PMNL) from human peripheral blood for carrying out tests 1 and 2 10 ml of human blood were diluted with 10 ml of HBSS (Serva) and underlaid with 15 ml of Lymphoprep (Dr. Molter GmbH, Heidelberg). […] A white ring, composed of mononuclear cells, is located between these two phases. The lowermost phase is composed of erythrocytes which are covered with a white layer of PMNL. The uppermost phase, and also the Lymphoprep and the white ring, were carefully removed using a syringe. The remaining sediment was carefully resuspended in 15 ml of 3% dextran in PM16 (mw: 485,000, Sigma, Deisenhofen). The suspension was then left to stand at room temperature for one hour. During this time, the erythrocytes sedimented while the PMNL remained in the supernatant. The supernatant was removed, diluted with an approximately equal volume of PM16, and centrifuged for 15 minutes at 400×g. Should the PMNL sediment be heavily contaminated with erythrocytes, it is necessary to carry out a hypotonic lysis. To do this, the sediment was resuspended in 750 μl of water. After exactly 15 seconds, the suspension was diluted with approximately 7 ml of PM16 and centrifuged for 10 minutes at 400×g. If necessary, this lysis was repeated once more. Otherwise, the PMNL sediment was resuspended in a suitable medium. 250 μl of PMNL (5·10^6 cells/ml of PBS containing 7.5 mM glucose) were incubated at 37° C. for 20 minutes with 1 μl of test substance. 1 μl of cytochalasin B (5 μg/ml of test mixture) was then added and the mixture was incubated at 37° C. for a further 5 minutes. Following the addition of 1 μl of […] necrosis factor alpha (TNF; 30 ng/ml of test mixture), the incubation was continued for 5 minutes. The release was started using 1 μl of fMLP (10 nmol/l of test mixture). After 60 minutes at 37° C., the reaction was terminated by cooling the samples down to 0° C. The samples were then centrifuged, and the supernatant was removed and frozen down. Cytochalasin B and fMLP were dissolved in DMSO and TNF was diluted with buffer. 50 μl of the supernatant were mixed with 175 μl of buffer (100 mM HEPES, pH 7.5; 500 mM NaCl) in a 96-well microtiter plate. Following the addition of 25 μl of substrate (methoxysuccinyl-[…]-nitroanilide), the extinction of each well was measured at 405 nm after 0, 5, 10, 15, 30 and 60 minutes. […] The interleukin is additionally indicated in test 4.

[5] abbreviates: 50 mg/kg orally, daily for 17 days, rat.
Setting [6] is: Homo sapiens, 100 μM, read-out: Test 5 residual activity (cyclooxygenase-dependent thrombocyte aggregation), percent of control.

Each structure is given as a SMILES string. Where a name gives a salt, the structure may show the parent alone. Read-outs that look alike come from different tables or passages of the source.

As to `CC(C)(C)c1cc(C2=NO[C@H]([C@@H](O)CO)C2)cc(C(C)(C)C)c1O` (relative stereo) [Example 90, 3-(3,5-Di-tert-butyl-4-hydroxyphenyl)-5-(1,2-dihydroxyethyl)-2-isoxazoline,rac. threo isomer], the inhibition in vivo at 50 mg/kg in assay [1] (setting [5]) was determined as 36%. Further, the IC50 (in general, the concentration that inhibits the measured activity by half) in assay [2] is 30 µM.
For `C[C@H](OC(=O)c1ccc(CN2CCOCC2)cc1)[C@@H]1CC(c2cc(C(C)(C)C)c(O)c(C(C)(C)C)c2)=NO1` (relative stereo) [Example 87, 1-(3-(4-Hydroxy-3,5-di-tert-butylphenyl)-2-isoxazolin-5-yl)ethyl 4-(4-morpholino)methylbenzoate hydrochloride], in assay [1] (daily for 17 days, rat), the inhibition in vivo at 20 mg/kg is 50%. In addition, the IC50 in assay [2] was less than 5 µM.
On to `C[C@@H](OC(=O)c1ccc(CN2CCOCC2)cc1)[C@@H]1CC(c2cc(C(C)(C)C)c(O)c(C(C)(C)C)c2)=NO1` (relative stereo) [Example 86, 1-(3-(4-Hydroxy-3,5-di-tert-butylphenyl)-2-isoxazolin-5-yl)ethyl 4-(4-morpholino)methylbenzoate hydrochloride], for which, in assay [1] (daily for 17 days, rat), the inhibition in vivo at 20 mg/kg worked out at 70%. The IC50 in assay [2] was less than 5 µM.
As to `CC(C)(C)c1cc(-c2cc(CCCCO)on2)cc(C(C)(C)C)c1O` [Example 27], the activity at 100 µM in assay [3] (setting [6]) was 97%. For the same molecule, the inhibition in vivo at 50 mg/kg in assay [1] (setting [5]) was found to be 71%. Besides, in assay [2], the IC50 was less than 5 µM.
`CC(=O)O[C@@H](C)[C@@H]1CC(c2cc(C(C)(C)C)c(O)c(C(C)(C)C)c2)=NO1` (relative stereo) [Example 22, 1-(3-(4-Hydroxy-3,5-di-tert-butylphenyl)-2-isoxazolin-5-yl)ethyl acetate]: the inhibition in vivo at 50 mg/kg in assay [1] (setting [5]) was found to be 74%.
Consider `CC(OC(=O)CN)c1cc(-c2cc(C(C)(C)C)c(O)c(C(C)(C)C)c2)no1` (stereo not drawn) [Example 76, Glycine-1-(3-(4-hydroxy-3,5-di-tert-butylphenyl)isoxazol-5-yl)ethyl ester hydrochloride], for which, in assay [4], the activity at 10 µM stood at 68% and the activity at 100 µM was 9%. Besides, in assay [3] (Homo sapiens, 25 μM, read-out: Test 5 residual activity (cyclooxygenase-dependent thrombocyte aggregation), percent of control), the activity at 25 µM is 99%. Besides, the inhibition in vivo at 50 mg/kg in assay [1] (setting [5]) came to 70%. In assay [2], the IC50 amounted to 20 µM.
With `CC(C)(C)c1cc(C2=NOC3(CC3)C2)cc(C(C)(C)C)c1O` [Example 12], the inhibition in vivo at 50 mg/kg in assay [1] (setting [5]) was found to be 82%. Also, in assay [2], the IC50 stood at 10 µM.
For the molecule `CC(O)CC(O)CC1CC(c2cc(C(C)(C)C)c(O)c(C(C)(C)C)c2)=NO1` (stereo not drawn) [Example 78], the activity at 50 µM in assay [3] (Homo sapiens, 50 μM, read-out: Test 5 residual activity (cyclooxygenase-dependent thrombocyte aggregation), percent of control) is 94%. In assay [2], the IC50 was 5 to 10 µM.
For `CC(O)CC1CC(c2cc(C(C)(C)C)c(O)c(C(C)(C)C)c2)=NO1` (stereo not drawn) [Example 15], in assay [1] (setting [5]), the inhibition in vivo at 50 mg/kg was 60%. Besides, the IC50 in assay [2] was in the range of 8 to 15 µM.
With `C=CCC(O)CC1CC(c2cc(C(C)(C)C)c(O)c(C(C)(C)C)c2)=NO1` (stereo not drawn) [Example 79], the activity at 100 µM in assay [3] (setting [6]) came to 96%. In assay [2], the IC50 lay in the range of 5 to 10 µM.
For the molecule `CCCCCCCCCCCCCCCC(=O)O[C@H](C)[C@@H]1CC(c2cc(C(C)(C)C)c(O)c(C(C)(C)C)c2)=NO1` (relative stereo) [Example 81, 1-(3-(4-Hydroxy-3,5-di-tert-butylphenyl)-2-isoxazolin-5-yl)ethyl hexadecanoate (erythro isomer)], the activity at 100 µM in assay [3] (setting [6]) was determined as 100%. The inhibition in vivo at 50 mg/kg in assay [1] (setting [5]) amounted to 67%.
In the case of `CC(C)(C)c1cc(C2=NO[C@H]([C@H](O)CO)C2)cc(C(C)(C)C)c1O` (relative stereo) [Example 89, 3-(3,5-Di-tert-butyl-4-hydroxyphenyl)-5-(1,2-dihydroxyethyl)-2-isoxazoline,rac. erythro isomer], the inhibition in vivo at 50 mg/kg in assay [1] (setting [5]) was found to be 36%. Further, the IC50 in assay [2] was 20 µM.
For `CC(C)(C)c1cc(-c2cc(CNC(=O)[C@@H](N)Cc3ccccc3)on2)cc(C(C)(C)C)c1O` [Example 55, L-Phenylalanyl-N-(3-(4-hydroxy-3,5-di-tert-butylphenyl)-isoxazol-5-ylmethyl)amide hydrochloride], the inhibition in vivo at 50 mg/kg in assay [1] was 47%. For the same molecule, the IC50 in assay [2] was less than 5 µM.
Consider `CC(O)Cc1cc(-c2cc(C(C)(C)C)c(O)c(C(C)(C)C)c2)no1` (stereo not drawn) [Example 30], for which, in assay [1] (setting [5]), the inhibition in vivo at 50 mg/kg came to 63%. For the same molecule, the concentration for half-maximal inhibition (IC50) in assay [2] fell in the range of 5 to 10 µM.
As to `CC(=O)CC(=O)O[C@H](C)[C@@H]1CC(c2cc(C(C)(C)C)c(O)c(C(C)(C)C)c2)=NO1` (relative stereo) [Example 84, 1-(3-(4-Hydroxy-3,5-di-tert-butylphenyl)-2-isoxazolin-5-yl)ethyl 3-oxobutyrate], the inhibition in vivo at 25 mg/kg in assay [1] (daily for 17 days, rat) stood at 49%.
As to `C[C@@H](OP(=O)(Oc1ccccc1)Oc1ccccc1)[C@@H]1CC(c2cc(C(C)(C)C)c(O)c(C(C)(C)C)c2)=NO1` (relative stereo) [Example 85, Diphenyl 1-(3-(4-hydroxy-3,5-di-tert-butylphenyl)-2-isoxazolin-5-yl)ethyl phosphate], the “Test 5 residual activity (cyclooxygenase-dependent thrombocyte aggregation), percent of control” value in assay [3] (100 μM) came out at 94%. Besides, the IC50 in assay [2] was less than 5 µM.
Consider `CC(C)(C)c1cc(-c2cc(CCC(=O)O)on2)cc(C(C)(C)C)c1O` [Example 45, 3-(4-Hydroxy-3,5-di-tert-butylphenyl)isoxazol-5-ylpropionic acid], for which, in assay [3] (setting [6]), the activity at 100 µM turned out to be 98%. In addition, the IC50 in assay [2] fell in the range of 5 to 10 µM.
As for `CC(C)(C)c1cc(C2=NOC3(CCC3)C2)cc(C(C)(C)C)c1O` [Example 67], the inhibition in vivo at 50 mg/kg in assay [1] (setting [5]) was 53%. Besides, the half-maximal inhibitory concentration (IC50) in assay [2] was less than 5 µM.
As for `CCOP(=O)(/C=C/c1cc(-c2cc(C(C)(C)C)c(O)c(C(C)(C)C)c2)no1)OCC` [Example 57, Diethyl 2-(3-(4-hydroxy-3,5-di-tert-butylphenyl)isoxazol-5-yl)vinylphosphonate], the activity at 100 µM in assay [3] (setting [6]) was 99%. Further, the IC50 in assay [2] was less than 5 µM.
On to `CC(C)(C)c1cc(C2=NOC(C(C)(C)O)C2)cc(C(C)(C)C)c1O` (stereo not drawn) [Example 69], for which the inhibition in vivo at 50 mg/kg in assay [1] (setting [5]) was found to be 83%. In assay [2], the IC50 lay in the range of 5 to 10 µM.
As to `CC(C)(C)c1cc(-c2cc(CNC(=O)[C@H](O)[C@@H](O)C(=O)O)on2)cc(C(C)(C)C)c1O` [Example 83], the inhibition in vivo at 50 mg/kg in assay [1] (setting [5]) amounted to 39%.
`CC(C)(C)c1cc(-c2cc(C=O)on2)cc(C(C)(C)C)c1O` [Example 66]: in assay [1] (daily for 17 days, rat), the inhibition in vivo at 25 mg/kg was determined as 59%. Also, the IC50 in assay [2] was less than 5 µM.
Turning to `CC(C)(C)c1cc(-c2noc(CO)c2CO)cc(C(C)(C)C)c1O` [Example 32], the activity at 1 µM in assay [4] (1 μM) is 84%. For the same molecule, in assay [4], the activity at 10 µM worked out at 72% and the activity at 100 µM was found to be 34%.
